Test results published in article PMC10384010, “Chromatographic Data in Statistical Analysis of BBB Permeability Indices” (Membranes, 2023).

Key:
[1] = Reversed-phase TLC on RP-2 silanized plates (Rf); assay type: physicochemical; conditions: silica gel 60 RP-2 F254 silanized; water:methanol:acetonitrile 60:20:20, ammonium acetate pH 7.4
[2] = Normal-phase TLC on silica gel 60 F254 (Rf); assay type: physicochemical; conditions: water:methanol:acetonitrile 60:20:20, ammonium acetate pH 7.4
[3] = HPLC on IAM (immobilized artificial membrane) column, retention factor; assay type: physicochemical; conditions: IAM.PC.DD.2 column; for k(IAM) retention factor: 10 mM phosphate buffer pH 7.4:acetonitrile 80:20; for logkIAM: logarithm of retention factor, phosphate buffer pH 7.4:acetonitrile 80:20
[4] = plasma protein binding, given as fraction; ref Drugbank; cited from earlier work

Compound | RP (Rf from RP-2 TLC plate) [1] | NP (Rf from NP TLC plate) [2] | k(IAM) retention factor [3] | logkIAM [3] | PB (protein binding) [4]
CC(N)C12CC3CC(CC(C3)C1)C2 (stereo not shown) [rimantadine] | 0.95 | 0.92 | – | – | –
CN1C(=O)C(O)N=C(c2ccccc2)c2cc(Cl)ccc21 (stereo not shown) [temazepam] | – | – | 6.74 | 0.83 | –
C[C@H]1O[C@@H](O[C@H]2[C@@H](O)C[C@H](O[C@H]3[C@@H](O)C[C@H](O[C@H]4CC[C@@]5(C)[C@H](CC[C@@H]6[C@@H]5C[C@@H](O)[C@]5(C)[C@@H](C7=CC(=O)OC7)CC[C@]65O)C4)O[C@@H]3C)O[C@@H]2C)C[C@H](O)[C@@H]1O [digoxin] | – | – | 3.69 | 0.57 | –
CCN(CC)CCCC(C)Nc1ccnc2cc(Cl)ccc12 (stereo not shown) [chloroquine] | – | – | – | – | 0.55
CN(C)CCCC1(c2ccc(F)cc2)OCc2cc(C#N)ccc21 (stereo not shown) [citalopram] | – | – | – | – | 0.8
O=C1CC2(CCCC2)CC(=O)N1CCCCN1CCN(c2ncccn2)CC1 [buspirone] | – | 0.57 | 7.00 | 0.84 | –
Nc1cc(N2CCCCC2)nc(N)[n+]1[O-] [minoxidil] | – | 0.43 | – | – | –
O=C(N[C@H](CO)[C@H](O)c1ccc([N+](=O)[O-])cc1)C(Cl)Cl [chloramphenikol] | 0.89 | 0.99 | 1.08 | 0.03 | –
CN[C@@H](C)[C@@H](O)c1ccccc1 [pseudoephedrine] | – | – | 2.21 | 0.34 | –
CC(C)NCC(O)COc1cccc2[nH]ccc12 (stereo not shown) [pindolol] | – | 0.53 | 6.09 | 0.78 | 0.4
CCCc1cc(=O)[nH]c(=S)[nH]1 [propylthiouracil] | – | – | – | – | 0.82
Cc1cnc(NC(=O)C2=C(O)c3ccccc3S(=O)(=O)N2C)s1 [meloxicam] | – | 0.99 | 0.49 | -0.31 | –
O=C(O)COC(=O)Cc1ccccc1Nc1c(Cl)cccc1Cl [aceclofenac] | – | 0.89 | 2.63 | 0.42 | 0.99
CCCC(=O)Nc1ccc(OCC(O)CNC(C)C)c(C(C)=O)c1 (stereo not shown) [acebutolol] | – | – | – | – | 0.26
CC(C)Cc1ccc(C(C)C(=O)O)cc1 (stereo not shown) [ibuprofen] | – | – | 0.86 | -0.07 | –
Clc1ccc2c(c1)CCc1cccnc1C2=C1CCNCC1 [desloratidine] | – | – | 50.45 | 1.70 | –
NC(N)=Nc1nc(CSCCC(N)=NS(N)(=O)=O)cs1 [famotidine] | 0.98 | 0.7 | – | – | –
CC(C(=O)O)c1cccc(C(=O)c2ccccc2)c1 (stereo not shown) [ketoprofen] | – | – | 0.20 | -0.71 | –
CC(=O)OCC(=O)[C@@]1(O)CC[C@H]2[C@@H]3CCC4=CC(=O)CC[C@]4(C)[C@H]3[C@@H](O)C[C@@]21C [hydrocortisone acetate] | – | 0.96 | 2.82 | 0.45 | 0.95
CO[C@H]1/C=C/O[C@@]2(C)Oc3c(C)c(O)c4c(O)c(c(/C=N/N5CCN(C)CC5)c(O)c4c3C2=O)NC(=O)/C(C)=C\C=C\[C@H](C)[C@H](O)[C@@H](C)[C@@H](O)[C@@H](C)[C@H](OC(C)=O)[C@@H]1C [rifampicin] | 0.95 | 0.73 | – | – | 0.89

Compound | RP (Rf from RP-2 TLC plate) [1] | NP (Rf from NP TLC plate) [2] | k(IAM) retention factor [3] | logkIAM [3] | PB (protein binding) [4]
CC1COc2c(N3CCN(C)CC3)c(F)cc3c(=O)c(C(=O)O)cn1c23 (stereo not shown) [ofloxacin] | – | 0.24 | – | – | 0.32
CCCNCC(O)COc1ccccc1C(=O)CCc1ccccc1 (stereo not shown) [propafenone] | 0.56 | 0.57 | – | – | –
CN(C)CCCN1c2ccccc2CCc2ccc(Cl)cc21 [clomipramine] | – | 0.33 | – | – | –
Cc1nc2n(c(=O)c1CCN1CCC(c3noc4cc(F)ccc34)CC1)CCCC2 [risperidone] | – | – | 4.83 | 0.68 | –
PABA | – | – | 0.01 | -1.88 | –
Cc1cc2c(s1)Nc1ccccc1N=C2N1CCN(C)CC1 [olanzapine] | – | – | 20.31 | 1.31 | –
Cc1ccc(-c2nc3ccc(C)cn3c2CC(=O)N(C)C)cc1 [zolpidem] | – | – | 2.60 | 0.42 | –
CC(C)c1nc(N(C)S(C)(=O)=O)nc(-c2ccc(F)cc2)c1/C=C/[C@@H](O)C[C@@H](O)CC(=O)O [rosuvastatin] | 0.92 | 0.9 | 0.96 | -0.02 | –
CC(C)NCC(O)COc1cccc2ccccc12 (stereo not shown) [propranolol] | – | 0.54 | 28.09 | 1.45 | –
CCN(CC)CC#CCOC(=O)C(O)(c1ccccc1)C1CCCCC1 (stereo not shown) [oxybutinin] | 0.29 | 0.68 | 49.68 | 1.70 | –
COc1cccc(C2(O)CCCCC2CN(C)C)c1 (stereo not shown) [tramadol] | – | – | – | – | 0.2
CCCCC(=O)N(Cc1ccc(-c2ccccc2-c2nnn[nH]2)cc1)[C@H](C(=O)O)C(C)C [valsartan] | – | – | 0.08 | -1.10 | 0.955
COc1ccc2cc([C@H](C)C(=O)O)ccc2c1 [naproxen] | 0.88 | 0.92 | – | – | –
CCC(C)(C)C(=O)O[C@H]1C[C@@H](C)C=C2C=C[C@H](C)[C@H](CC[C@@H]3C[C@@H](O)CC(=O)O3)[C@H]21 [simvastatin] | 0.66 | 0.19 | – | – | –
Cc1ccc(O)c([C@H](CCN(C(C)C)C(C)C)c2ccccc2)c1 [tolterodine] | – | – | 0.21 | -0.68 | –
CC(=O)Nc1nnc(S(N)(=O)=O)s1 [acetazolamid] | 0.97 | – | – | – | 0.98
CC(C)(O)c1ccccc1CC[C@@H](SCC1(CC(=O)O)CC1)c1cccc(/C=C/c2ccc3ccc(Cl)cc3n2)c1 [montelukast] | – | – | 99.10 | 2.00 | –
Oc1ncnc2[nH]ncc12 [allopurinnol] | 0.97 | 0.89 | – | – | –
CCC1(c2ccccc2)C(=O)NCNC1=O [primidone] | 0.93 | 0.9 | – | – | –
CC(C)NCC(O)COc1ccc(CC(N)=O)cc1 (stereo not shown) [atenolol] | 0.58 | 0.34 | – | – | –

Compound | RP (Rf from RP-2 TLC plate) [1] | NP (Rf from NP TLC plate) [2] | k(IAM) retention factor [3] | logkIAM [3] | PB (protein binding) [4]
CCS(=O)(=O)CCn1c([N+](=O)[O-])cnc1C [tinidazole] | – | 0.89 | – | – | 0.12
CC(C)c1c(C(=O)Nc2ccccc2)c(-c2ccccc2)c(-c2ccc(F)cc2)n1CC[C@@H](O)C[C@@H](O)CC(=O)O [atorvastatin] | 0.8 | – | – | – | –
CCOC(=O)C1=C(COCCN)NC(C)=C(C(=O)OC)C1c1ccccc1Cl (stereo not shown) [amlodipine] | 0.61 | – | 98.90 | 2.00 | –
O=C(O)c1cn(C2CC2)c2cc(N3CCNCC3)c(F)cc2c1=O [ciprofloxacin] | 0.38 | 0.11 | – | – | –
CCCCc1oc2ccccc2c1C(=O)c1cc(I)c(OCCN(CC)CC)c(I)c1 [amiodarone] | 0.33 | – | – | – | –
COc1cc2nc(N3CCN(C(=O)C4COc5ccccc5O4)CC3)nc(N)c2cc1OC (stereo not shown) [doxazosin] | 0.75 | – | 0.22 | -0.66 | –
OC(Cn1cncn1)(Cn1cncn1)c1ccc(F)cc1F [fluconazole] | 0.9 | 0.87 | – | – | –
COC(=O)c1ccc(O)cc1 [methyl paraben] | 0.85 | 0.97 | 1.94 | 0.29 | –
O=C1Nc2ccc(Cl)cc2C(c2ccccc2)=NC1O (stereo not shown) [oxazepam] | 0.83 | 0.93 | 4.78 | 0.68 | –
Cn1c(=O)c2[nH]cnc2n(C)c1=O [theophylline] | – | – | 0.12 | -0.94 | –
CN(C)CCC[C@@]1(c2ccc(F)cc2)OCc2cc(C#N)ccc21 [escitalopram] | – | – | 32.08 | 1.51 | 0.56
C[C@H](CS)C(=O)N1CCC[C@H]1C(=O)O [captopril] | – | 0.77 | 0.01 | -2.19 | –
Cc1nnc2n1-c1ccc(Cl)cc1C(c1ccccc1)=NC2 [alprazolam] | – | – | 3.14 | 0.50 | 0.8
CCN(CC)CCNC(=O)c1cc(Cl)c(N)cc1OC [metoclopramide] | – | – | 6.16 | 0.79 | –
O=C(O)COCCN1CCN([C@H](c2ccccc2)c2ccc(Cl)cc2)CC1 [levocetrizine] | – | 0.63 | – | 0.58 | –
gentamycin | 0.911 | 0.96 | – | – | –
Cn1c(=O)c2c(ncn2C)n(C)c1=O [caffeine] | – | 0.82 | 0.18 | -0.75 | –
CN(C)C(=O)C(CCN1CCC(O)(c2ccc(Cl)cc2)CC1)(c1ccccc1)c1ccccc1 [loperamide] | 0.75 | 0.68 | – | – | –
COCCCC/C(=N\OCCN)c1ccc(C(F)(F)F)cc1 [fluvoxamine] | – | 0.34 | – | – | –
Nc1nc2c(ncn2COCCO)c(=O)[nH]1 [aciclovir] | 0.99 | – | 0.09 | -1.04 | 0.21
